Laboratory results reported in patent publication US4766108A, “Tyr-Arg-vasopressin antagonists” (Smith Kline Beckman Corporation, priority 1986, dated 1988).
Numbered stars: 1 amine (or outer) side, 2 acyl side, 3 side chain; on linkers, the order of the positions; unused ones are H or OH. Bridge positions count the residues as written; N and C are the ends. Square brackets hold non-standard residues; d marks the D form. Peptide text beside a SMILES is read from it. X1 = O=C(CC1(S[*:2])CCCCC1)[*:1]

What was measured:
[1] = target: T1, vasopressin receptors (V2 -receptors) in the porcine renal medullary membrane (Sus scrofa, UniProt P32307); assay: [3H]-LVP binding, porcine renal medullary membrane (Kbind); conditions: affinity of ligand for receptor in porcine renal medullary membrane; from IC50 of [3H]-LVP binding, Kb = IC50/(1 + L/KD)
T1 construct: the porcine renal medullary membrane; It is derived from the equation for; from tissue; host or cells: porcine (hog) kidney medullary membranes
Protocol: (§1) V2 -antagonistic activity toward the natural anti-diuretic hormone (anti-ADH activity) is determined, in vitro, in the medullary tissue of hog or human kidneys and, in vivo, in the hydropenic rat. The in vitro assay procedures for vasopressin stimulated adenylate cyclase activation or vasopressin binding activity are described by F. Stassen et al., J. Pharmacology and Experimental Therapeutics, 223, 50-54 (1982). V1 -antagonistic activity is determined by procedures using the rat thoracic aortic tissue and plasma membranes of rat liver. These procedures are described in the noted Stassen publication and in a publication at the lst International Conference on Diuretics, Miami, Fla., March (1984). Oxytocin antagonism is determined as described by W. Sawyer et al., Endocrinology, 106 81 (1979). | ^a Kbind is a measure of the affinity of ligand for receptor in | the porcine renal medullary membrane. It is derived from the equation for | competitive inhibition Kb = IC50 /(1 + L/KD) where | IC50 is the concentration of the ligand for 50% inhibition of [^ | H]-LVP binding, L is the concentration of the ligand, and KD is the | dissociation constant of [ ^3 H]-LVP.

[2] = target: T2, V1 receptor, human liver membrane (Homo sapiens, UniProt P37288); assay: Binding to human liver membrane (V1 receptor); conditions: read-out: Kbind human liver (V1 receptor)
T2 construct: from tissue; host or cells: human liver membranes
Protocol: as §1, with “(1979).” for “(1979). | ^a Kbind is a measure of the affinity of ligand for receptor in | the porcine renal medullary membrane. It is derived from the equation for | competitive inhibition Kb = IC50 /(1 + L/KD) where | IC50 is the concentration of the ligand for 50% inhibition of [^ | H]-LVP binding, L is the concentration of the ligand, and KD is the | dissociation constant of [ ^3 H]-LVP.”
^d Kbind relates to human liver membrane activity.

T1 sequence (P32307 whole entry): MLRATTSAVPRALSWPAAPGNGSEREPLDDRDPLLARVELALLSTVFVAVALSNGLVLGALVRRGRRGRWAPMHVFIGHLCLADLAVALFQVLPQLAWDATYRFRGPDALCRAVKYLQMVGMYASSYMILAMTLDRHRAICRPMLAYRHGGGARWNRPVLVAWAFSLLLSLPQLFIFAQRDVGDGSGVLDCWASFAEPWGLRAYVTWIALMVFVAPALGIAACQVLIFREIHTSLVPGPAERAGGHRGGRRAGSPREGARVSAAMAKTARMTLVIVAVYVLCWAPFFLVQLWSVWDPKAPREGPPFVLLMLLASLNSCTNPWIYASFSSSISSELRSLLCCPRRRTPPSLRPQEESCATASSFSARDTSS
T2 sequence (P37288 whole entry): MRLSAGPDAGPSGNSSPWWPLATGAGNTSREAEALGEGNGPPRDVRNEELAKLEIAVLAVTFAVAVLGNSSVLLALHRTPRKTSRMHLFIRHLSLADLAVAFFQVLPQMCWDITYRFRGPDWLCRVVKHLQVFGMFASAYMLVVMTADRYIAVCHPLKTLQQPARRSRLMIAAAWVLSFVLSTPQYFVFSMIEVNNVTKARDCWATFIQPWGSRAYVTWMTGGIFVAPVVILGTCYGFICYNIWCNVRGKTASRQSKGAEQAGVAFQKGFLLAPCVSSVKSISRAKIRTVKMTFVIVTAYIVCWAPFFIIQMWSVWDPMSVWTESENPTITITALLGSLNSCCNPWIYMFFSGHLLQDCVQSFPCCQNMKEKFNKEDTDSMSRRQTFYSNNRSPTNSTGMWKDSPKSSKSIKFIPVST

| SMILES | Ki [1] [nM] | Ki [2] [nM] |
| --- | --- | --- |
| CCOc1ccc(C[C@H]2NC(=O)CC3(CCCCC3)SSC[C@@H](C(=O)N[C@@H](Cc3ccc(O)cc3)C(=O)N[C@@H](CCCNC(=N)N)C(N)=O)NC(=O)[C@H](CC(N)=O)NC(=O)[C@H](C(C)C)NC(=O)[C@H](Cc3ccccc3)NC2=O)cc1 [No. 1, [1-(β-mercapto-β,β-cyclopentamethylene-propionic acid)-2-(O-ethyl)-D-tyrosine-4-valine-7-tyrosine-8-arginine-desglycine]-vasopressin] ([dY](Et)FVNCYR-NH2; linker N-5 via X1) | 14 | – |
| CCOc1ccc(C[C@H]2NC(=O)CC3(CCCCC3)SSC[C@@H](C(=O)N[C@@H](CCCNC(=N)N)C(=O)N[C@@H](Cc3ccc(O)cc3)C(N)=O)NC(=O)[C@H](CC(N)=O)NC(=O)[C@H](C(C)C)NC(=O)[C@H](Cc3ccccc3)NC2=O)cc1 [No. 2, [1-(β-mercapto-β,β-cyclopentamethylene-propionic acid)-2-(O-ethyl)-D-tyrosine-4-valine-7-arginine-8-tyrosine-9-desglycine]-vasopressin] ([dY](Et)FVNCRY-NH2; linker N-5 via X1) | 23 | 1.8 |

Results, then the compound that gave them:

| Ki [1] [nM] | Ki [2] [nM] | SMILES |
| --- | --- | --- |
| 8.8 | – | CCOc1ccc(C[C@H]2NC(=O)CC3(CCCCC3)SSC[C@@H](C(=O)N[C@@H](CCCCN)C(=O)N[C@@H](CCCNC(=N)N)C(N)=O)NC(=O)[C@H](CC(N)=O)NC(=O)[C@H](C(C)C)NC(=O)[C@H](Cc3ccccc3)NC2=O)cc1 [compound 4] ([dY](Et)FVNCKR-NH2; linker N-5 via X1) |
| 2.7 | – | CCOc1ccc(C[C@H]2NC(=O)CC3(CCCCC3)SSC[C@@H](C(=O)N[C@@H](CCCNC(=N)N)C(=O)N[C@@H](CCCNC(=N)N)C(N)=O)NC(=O)[C@H](CC(N)=O)NC(=O)[C@H](C(C)C)NC(=O)[C@H](Cc3ccccc3)NC2=O)cc1 [compound 3] ([dY](Et)FVNCRR-NH2; linker N-5 via X1) |
| 11 | 1.2 | CCOc1ccc(C[C@H]2NC(=O)CC3(CCCCC3)SSC[C@@H](C(=O)N[C@@H](CCCNC(=N)N)C(N)=O)NC(=O)[C@H](CC(N)=O)NC(=O)[C@H](C(C)C)NC(=O)[C@H](Cc3ccccc3)NC2=O)cc1 [compound 5] ([dY](Et)FVNCR-NH2; linker N-5 via X1) |
